In patent publication US6699676B1, “Uses of ouabain and ouabain-like molecules in apoptosis related pathologies” (Corporation du Centre de Recherche du Centre, Hospitalier …, priority 1999, dated 2004):

Legend:
VSMC-E1A = experiment: 3'-end DNA labeling / DNA laddering in VSMC-E1A; type: cell-based, rat; conditions: 1 mM ouabain, serum deprivation
Protocol: FIG. 3. Effect of ouabain on morphology (A) and DNA laddering (B and C) in VSMC-E1A. In experiments with ouabain, cells were pretreated with 1 mM of this compound 1 hour before 6 hours exposure to serum-free medium. A. Cell morphology was evaluated by phase contrast microscopy without preliminary fixation. a, c) DMEM containing 10% calf serum; b, d) serum-free DMEM; a, b) without ouabain; c, d) in the presence of ouabain. Micro graphs were prepared using a Nikon phase contrast microscope at ×100 magnification. Apoptotic cells are shown by arrows. B. DNA laddering (left part of the figure) was analyzed with a PhosphorImager, and relative content of low molecular weight DNA fragments (1,500−125 bp−right part of the figure) in cells incubated with 10% calf serum (CS) in the absence of ouabain was taken as 100%. Means±S.E. obtained in 2 experiments performed in triplicate are shown.
3′-end DNA labeling. VSMC-E1A seeded in 75 cm^2 flasks were treated with 4 ml of lysis buffer containing 50 mM tris-HCI, 20 mM EDTA (pH 8.0), 0.5% SDS and 500 μg/ml proteinase K. The lysate was incubated at 50° C. for 3 hours, mixed with 250 μg/ml RNAase A and incubated for 1 hour at 37° C. […] After 1 hour incubation at 37° C., the aliquots were loaded on 1.5% agarose gel, run at 100 V for 3 to 4 hours, transferred onto a nylon membrane (Hybond N+, Amersham), and analyzed with a PhosphorImager. […]

VSMC = experiment: Chromatin cleavage assay in non-transfected VSMC; type: cell-based, rat
Protocol: Cells were incubated in K^+-containing medium consisting of 91 mM NaCl, 5 mM KCl, 0.9 mM NaH2PO4, 44 mM NaHCO3, 1.8 mM CaCl2, 0.8 mM MgCl2, 33 mM HEPES and 5 mM D-glucose (pH 7.4) (lines 1 and 2) or in K^+-depleted medium (equimolar substitution of KCl by NaCl, line 3) with or without 10% calf serum (CS) and 1 mM ouabain as indicated. In experiments with VSMC-MYC and VSMC-E1A, cells were preincubated for 1 hr with ouabain or with K^+-depleted medium in the presence of CS and then subjected to treatment with serum-free media. After 24 hours (VSMC) or 6 hours (VSMC-MYC and VSMC-E1A), the content of chromatin fragments was measured as described in Experimental Procedures. Mean values±S.E. obtained in 3 experiments performed in quadruplicate (VSMC) or triplicate (VSMC-MYC, VSMC-E1A) are given. ★, ★★ p<0.05 and 0.001 compared to the controls.
VSMC growing in 6-well (LDH release) or 24-well (chromatin cleavage assay) plates were preincubated for 3 hours with or without 1 mM ouabain. In part of the experiments, the cells were subjected to 30 min incubation at 46° C. (heat-treated cells, line 3). They were then incubated in the absence or presence of 10% calf serum during additional 8 hr and chromatin cleavage and LDH release were measured as indicated in Experimental Procedures and with a spectrophotometric kit (Sigma), respectively. Means±S.E. from experiments performed in triplicate (LDH release) or quadruplicate (chromatin cleavage) are given. ★, ★★ p<0.05 and 0.001 compared to ouabain-untreated cells. #p<0.001 compared to serum-supplied, heat-untreated cells.
Cells. VSMC were obtained by explant methods from aortas of 10- to 13-week-old male rats as described previously (17), cultured in DMEM with 10% calf serum, 100 U/ml penicillin, 100 µg/ml streptomycin and used between 10 to 16 passages. Cells transfected with c-myc (VSMC-MYC) and E1A-adenovirus (VSMC-E1A) were obtained in accordance with a previously-described protocol (18,19) and were cultured in the same medium with the addition of 500 µg/ml genticin. Jurkat cells were obtained from the American Type Culture Collection and cultured in RPMI 1640 medium supplied with 10% calf serum, antibiotics, sodium pyruvate, glutamate and β-mercaptoethanol.
Chromatin cleavage assay. Chromatin cleavage in VSMC was estimated by a technique described previously in detail (10). Briefly, VSMC grown in 24-well dishes were labeled for 24 hours in serum-supplied DMEM with [^3H]-thymidine (1 μCi/ml), washed with 2×2 ml of DMEM and incubated in serum-supplied DMEM. […] After 15 min, the cell lysate was transferred to Ependorf tubes, sedimented (12,000 rpm, 10 mm), and 1 ml of supernatant was transferred for the measurement of radioactivity (A1t). The remaining radioactivity from pellets and wells was extracted with 0.5 ml of 1% SDS/4 mM EDTA mixture, combined and counted (A2). Chromatin cleavage was quantified as the content of chromatin fragments normalized by total content of [^3H]-labeled DNA in accordance with the equation [1.5×(A1t−A1o)/(A2+A1t−1.5A1o)]×100% where A1o is the value of A1t before induction of apoptosis. […] At the time intervals shown in FIG. 4, 100 μl of cell suspension was mixed with 100 μl of PBS contairung 0.5% triton X100, and the content of chromatin fragments was measured as described previously in detail (20).

## C[C@@H]1O[C@@H](O[C@H]2C[C@@H](O)[C@]3(CO)[C@H]4[C@H](O)C[C@]5(C)[C@@H](C6=CC(=O)OC6)CC[C@]5(O)[C@@H]4CC[C@]3(O)C2)[C@H](O)[C@H](O)[C@H]1O [Ouabain, 1β,3β,5,11α,14,19-hexahydroxycard 20 [22]-enolide 3-[6-deoxy-α-L-mannopyrano-sidel]]
VSMC-E1A
  DNA laddering and low molecular weight 3'-end labeled DNA fragments: prevented DNA laddering
VSMC; VSMC, 10% CS, 1 mM ouabain, 24 hours
  Chromatin fragments (%): 1.6 ± 0.3%
VSMC; VSMC, CS-free, 1 mM ouabain, 24 hours
  Chromatin fragments (%): 2.5 ± 0.6 %
VSMC; serum-deprived VSMC, 3 hours preincubation 1 mM ouabain, additional 8 hr
  Chromatin fragments (%): 1.8 ± 0.3 %
VSMC; serum-supplied VSMC, 3 hours preincubation 1 mM ouabain, additional 8 hr
  Chromatin fragments (%): 1.3 ± 0.4 %
VSMC; serum-supplied, heat-treated (46° C., 30 min) VSMC, 1 mM ouabain, 8 hr
  Chromatin fragments (%): 1.6 ± 0.4%
